Data on 15 compounds can be found in ChEMBL document CHEMBL1159145 (Bioorg Med Chem Lett, 1992).

One assay has as its target T1, Substance-K receptor (Mesocricetus auratus, UniProt P51144).
T1 sequence (P51144 whole entry): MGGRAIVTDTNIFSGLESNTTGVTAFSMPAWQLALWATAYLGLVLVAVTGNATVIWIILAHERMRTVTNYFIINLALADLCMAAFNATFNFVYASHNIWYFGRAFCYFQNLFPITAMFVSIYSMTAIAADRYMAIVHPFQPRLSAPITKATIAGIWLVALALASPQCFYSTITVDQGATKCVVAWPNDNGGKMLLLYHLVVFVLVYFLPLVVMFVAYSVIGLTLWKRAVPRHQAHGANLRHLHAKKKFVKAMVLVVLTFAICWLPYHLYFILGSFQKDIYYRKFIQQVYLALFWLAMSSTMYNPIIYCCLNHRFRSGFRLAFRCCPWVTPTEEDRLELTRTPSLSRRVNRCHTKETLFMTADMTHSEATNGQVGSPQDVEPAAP
As to the kind of experiment: Ability to displace the binding of [125I]iodohistidyl-NKA to Tachykinin receptor 2 in hamster urinary bladder membranes was determined. The class given is cell membranes, Membrane.

The target of the next assay is T2, Neuromedin-K receptor (Rattus norvegicus, UniProt P16177).
T2 sequence (P16177 whole entry): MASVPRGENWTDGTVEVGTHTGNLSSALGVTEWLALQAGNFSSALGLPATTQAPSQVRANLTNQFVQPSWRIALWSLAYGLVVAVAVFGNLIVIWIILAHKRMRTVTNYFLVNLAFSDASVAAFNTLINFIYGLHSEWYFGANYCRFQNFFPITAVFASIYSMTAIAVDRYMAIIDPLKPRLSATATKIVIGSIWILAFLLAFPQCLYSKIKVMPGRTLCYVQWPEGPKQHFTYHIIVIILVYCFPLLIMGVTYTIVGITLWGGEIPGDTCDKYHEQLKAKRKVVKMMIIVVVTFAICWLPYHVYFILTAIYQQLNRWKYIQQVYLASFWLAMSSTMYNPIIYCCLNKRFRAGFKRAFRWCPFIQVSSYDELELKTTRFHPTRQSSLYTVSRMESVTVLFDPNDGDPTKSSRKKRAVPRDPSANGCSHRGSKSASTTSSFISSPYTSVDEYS
The assay can be described thus: Ability to displace the binding of [3H]-Senktide to Tachykinin receptor 3 in rat cerebral cortex membranes was determined. The class given is cell membranes, Membrane.

The target in assay [1] is Substance-P receptor (Cavia porcellus, UniProt P30547). The assay can be described thus: Binding affinity towards Tachykinin receptor 1 binding in guinea pig cerebral cortex membranes was determined using [3H]SP as the radioligand. The class given is tissue-based, Membrane.
Assay [2] has as its target T3, Substance-P receptor (Rattus norvegicus, UniProt P14600). As to the kind of experiment: The binding affinity towards NK1 receptor in rat cerebral cortex membranes was determined by using 125 [I]-BHSP as radioligand. The format is cell membranes, Membrane.
Assay [3] has as its target T3, Substance-P receptor. As to the kind of experiment: Binding affinity towards Tachykinin receptor 1 in rat cerebral cortex membranes was determined by using 125 [I]-BHSP as radioligand. The class given is cell membranes, Membrane.

T3 sequence (P14600 whole entry): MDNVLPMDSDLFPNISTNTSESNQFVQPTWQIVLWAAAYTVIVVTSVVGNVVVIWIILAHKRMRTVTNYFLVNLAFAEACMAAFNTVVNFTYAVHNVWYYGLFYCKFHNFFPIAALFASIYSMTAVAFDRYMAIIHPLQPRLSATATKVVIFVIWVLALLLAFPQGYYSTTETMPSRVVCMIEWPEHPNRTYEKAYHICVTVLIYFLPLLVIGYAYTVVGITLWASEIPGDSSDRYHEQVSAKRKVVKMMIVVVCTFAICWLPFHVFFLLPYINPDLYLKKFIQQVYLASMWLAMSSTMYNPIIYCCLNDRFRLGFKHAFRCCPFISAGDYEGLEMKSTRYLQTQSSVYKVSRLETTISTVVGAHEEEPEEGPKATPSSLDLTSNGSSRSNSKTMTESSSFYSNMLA
Substance-P receptor (Cavia porcellus, UniProt P30547), sequence (P30547 whole entry): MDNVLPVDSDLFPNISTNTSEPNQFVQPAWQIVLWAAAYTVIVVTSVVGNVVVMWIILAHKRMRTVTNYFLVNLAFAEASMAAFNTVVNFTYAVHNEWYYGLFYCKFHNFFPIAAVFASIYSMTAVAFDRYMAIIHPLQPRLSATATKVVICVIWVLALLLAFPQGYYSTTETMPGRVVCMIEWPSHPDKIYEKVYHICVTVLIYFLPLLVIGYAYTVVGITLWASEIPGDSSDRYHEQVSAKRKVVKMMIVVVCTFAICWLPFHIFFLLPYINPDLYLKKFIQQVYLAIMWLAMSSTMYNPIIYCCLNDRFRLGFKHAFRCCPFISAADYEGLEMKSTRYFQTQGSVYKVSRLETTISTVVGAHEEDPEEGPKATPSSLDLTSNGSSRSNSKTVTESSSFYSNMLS

As a reminder, the IC50 is the concentration at which inhibition is half-maximal. Low readings indicate inhibition by little substance, high ones a need for much substance. Turning to `COc1ccccc1CN[C@H]1C2CCN(CC2)[C@@H]1C(c1ccccc1)c1ccccc1`, the IC50 at Substance-K receptor and at Neuromedin-K receptor was no less than 100 µM throughout.
Turning to `Clc1ccccc1CCCN[C@@H]1C2CCN(CC2)[C@@H]1C(c1ccccc1)c1ccccc1`, the IC50 at Substance-P receptor [1] is 1.1 µM; at Substance-K receptor, no less than 100 µM; on Substance-P receptor [2], greater than 10 µM; on Neuromedin-K receptor it was no less than 100 µM.
Regarding `FC(F)(F)c1ccccc1CN[C@@H]1C2CCN(CC2)[C@@H]1C(c1ccccc1)c1ccccc1`, the IC50 at Substance-P receptor [3] was 0.74 µM; on Substance-P receptor [1], 0.033 µM; at Substance-K receptor it was no less than 100 µM; on Neuromedin-K receptor it was no less than 100 µM.
Turning to `CSCC[C@H](NC(=O)[C@H](CC(C)C)NC(=O)CNC(=O)[C@@H](NC(=O)[C@H](Cc1ccccc1)NC(=O)[C@H](Cc1ccccc1)NC(=O)[C@H](CC(=O)O)NC(=O)[C@H](Cc1c[nH]cn1)NC(=O)[C@H](CCSC)NC(=O)[C@@H](N)CC(=O)O)C(C)C)C(N)=O` [NEUROKININ B], the values for the IC50 at Substance-P receptor [3] and at Substance-P receptor [1] were 0.069 µM and 0.013 µM, respectively.
As to `O=C(N[C@@H]1C2CCN(CC2)[C@@H]1C(c1ccccc1)c1ccccc1)c1ccccc1Cl`, the IC50 is greater than 10 µM on Substance-P receptor [3], greater than 10 µM at Substance-P receptor [1], no less than 100 µM at Substance-K receptor and no less than 100 µM at Neuromedin-K receptor.
As for `Clc1ccccc1CN[C@@H]1C2CCN(CC2)[C@@H]1C(c1ccccc1)c1ccccc1`, the IC50 on Substance-P receptor [3] is 0.11 µM; on Substance-P receptor [1] it was 0.0085 µM; on Substance-K receptor it was no less than 100 µM; at Neuromedin-K receptor it was no less than 100 µM.
Turning to `CSCC[C@H](NC(=O)[C@H](CC(C)C)NC(=O)CNC(=O)[C@@H](NC(=O)[C@H](Cc1ccccc1)NC(=O)[C@H](CO)NC(=O)[C@H](CC(=O)O)NC(=O)[C@@H](NC(=O)[C@H](CCCCN)NC(=O)[C@@H](N)Cc1cnc[nH]1)[C@@H](C)O)C(C)C)C(N)=O` [NEUROKININ A], the IC50 on Substance-P receptor [1] was 0.0035 µM.
As for `COc1ccccc1CN[C@@H]1C2CCN(CC2)[C@@H]1C(c1ccccc1)c1ccccc1`, the IC50 on Substance-K receptor and on Neuromedin-K receptor was no less than 100 µM in each case.
For the compound `COc1ccccc1CN[C@@H]1C2CCN(CC2)[C@@H]1Cc1ccccc1`, the IC50 is greater than 1 µM on Substance-P receptor [3], 1.51 µM at Substance-P receptor [1], no less than 100 µM at Substance-K receptor and no less than 100 µM on Neuromedin-K receptor.
On to `c1ccc(CN[C@@H]2C3CCN(CC3)[C@@H]2C(c2ccccc2)c2ccccc2)cc1`, for which the IC50 at Substance-P receptor [3] was 2 µM; at Substance-P receptor [1], 0.052 µM; on Substance-K receptor it was no less than 100 µM; at Neuromedin-K receptor it was no less than 100 µM.
Take `Cc1ccccc1CN[C@@H]1C2CCN(CC2)[C@@H]1C(c1ccccc1)c1ccccc1`: the IC50 is 0.7 µM at Substance-P receptor [3], 0.227 µM on Substance-P receptor [1], no less than 100 µM at Substance-K receptor and no less than 100 µM at Neuromedin-K receptor.
For the compound `Fc1ccccc1CN[C@@H]1C2CCN(CC2)[C@@H]1C(c1ccccc1)c1ccccc1`, the IC50 on Substance-P receptor [3] was 0.99 µM; at Substance-P receptor [1] it was 0.037 µM; on Substance-K receptor it was no less than 100 µM; at Neuromedin-K receptor, no less than 100 µM.
In the case of `COc1ccccc1CO[C@@H]1C2CCN(CC2)[C@@H]1C(c1ccccc1)c1ccccc1`, the IC50 on Substance-P receptor [3] is roughly 10 µM; on Substance-P receptor [1], 0.15 µM; on Substance-K receptor it was no less than 100 µM; on Neuromedin-K receptor, no less than 100 µM.
As for `N[C@@H]1C2CCN(CC2)[C@@H]1C(c1ccccc1)c1ccccc1`, the IC50 at Substance-P receptor [3] is greater than 10 µM; at Substance-P receptor [1] it was greater than 10 µM; on Substance-K receptor, no less than 100 µM; on Neuromedin-K receptor, no less than 100 µM.
Take `Clc1ccccc1CCN[C@@H]1C2CCN(CC2)[C@@H]1C(c1ccccc1)c1ccccc1`: the half-inhibitory concentration (IC50) was 7.2 µM on Substance-P receptor [3], 0.16 µM on Substance-P receptor [1], no less than 100 µM on Substance-K receptor and no less than 100 µM at Neuromedin-K receptor.
